Data published in patent US6864253B2, “Benzo[4,5]thieno[2,3-c]pyridine and Benzo[4,5]furo[2,3-c]pyridine Derivatives Useful as Inhibitors of Phosphodiesterase” (Orth-McNeil Pharmaceutical, Inc., priority 2000, dated 2005).

target: PDEV (Oryctolagus cuniculus, UniProt G1SX67); test: Cyclic nucleotide phosphodiesterase (PDE) assay, inhibition of PDEV isolated from rabbit tissue; assay type: biochemical; conditions: not given
Description: Briefly, rabbit or human tissues were homogenized in an ice-cold buffer solution containing 20 mM HEPES (pH 7.2), 0.25M sucrose, 1 mM EDTA, and 1 mM phenylmethylsulphonyl fluoride (PMSF). The homogenates were centrifuged at 100,000 g for 60 minutes at 4° C. The supernatant was filtered through […] filter and loaded on a Pharmacia Mono Q anion exchange column (1 ml bed volume) that was equilibrated with 20 mM HEPES, 1 mM EDTA and 0.5 mM PMSF. […] The fractions comprising various PDE activities were pooled separately and used in later studies.
The assays were adapted to a 96-well format. The enzyme was assayed in 5 mM MgCl2, 15 mM Tris HCl (pH 7.4), 0.5 mg/ml bovine serum albumin, 1 μM cGMP or cAMP, 0.1 μCi [^3H]-cGMP or [^3H]-cAMP, and 2-10 μl of column elution. The total volume of the assay was 100 μl. The reaction mixture was incubated at 30° C. for 30 minutes. The reaction was stopped by boiling for 1 minute and then cooled down on ice. The resulting [^3H] 5′-mononucleotides were further converted to uncharged [^3H]-nucleosides by adding 25 μl 1 mg/ml snake venom (Ophiophagus hannah) and incubating at 30° C. for 10 minute. The reaction was stopped by the addition of 1 ml Bio-Rad AG1-X2 resin slurry (1:3). All the charged nucleotides were bound by the resin and only the uncharged [^3H]-nucleosides remained in the supernatant after centrifuging. An aliquot of 200 μl was taken and counted by liquid scintillation. PDE activity was expressed as pmol cyclic nucleotide hydrolyzed/min/ml of enzyme preparation.
Inhibitor studies were carried out in assay buffer with a final concentration of 10% DMSO.

Row | Compound | IC50
1 | CN(C)CCn1c2c(c3ccccc31)CCN(c1nc3ccccc3o1)C2c1ccc2c(c1)OCO2 (stereo not shown) [Cmpd 155] | 9.2 µM

same assay, conditions: 10 μM test compound; rabbit PDEV

Row | Compound | % Inh @ 10 μM (rabbit) | % INH @ 10 μM (rabbit)
2 | COc1ccc(C2c3[nH]c4ccccc4c3CCN2C(=O)c2cc(C(C)(C)C)nn2Cc2ccccc2)cc1OC (stereo not shown) [Cmpd 134] | 5% | –
3 | O=C(c1ccc(-c2cccc(C(F)(F)F)c2)o1)N1CCc2c(n(C(=O)c3ccc(-c4cccc(C(F)(F)F)c4)o3)c3ccccc23)C1c1ccc2c(c1)OC(F)(F)O2 (stereo not shown) [Cmpd 20] | 4% | –
4 | COc1ccc2cc(C(=O)N3CCc4c([nH]c5ccccc45)C3c3ccc4c(c3)OCO4)oc2c1 (stereo not shown) [Cmpd 15] | 90% | –
5 | O=C(c1ccc(-c2ccc([N+](=O)[O-])cc2)o1)N1CCc2c([nH]c3ccccc23)C1c1ccc2c(c1)OCO2 (stereo not shown) [Cmpd 50] | 76% | –
6 | O=C(O)Cn1c2c(c3ccccc31)CCN(C(=O)c1ccc(-c3cccc([N+](=O)[O-])c3)o1)C2c1ccc2c(c1)OCO2 (stereo not shown) [Cmpd 30] | 93% | –
7 | O=C(O)Cn1c2c(c3ccccc31)CCN(C(=O)c1ccc(-c3cccc(C(F)(F)F)c3)o1)C2c1ccc2c(c1)OCO2 (stereo not shown) [Cmpd 31] | 75% | –
8 | CC(C)(C)c1cc(C(=O)N2CCc3c([nH]c4ccccc34)C2c2ccc(C#N)cc2)n(Cc2ccccc2)n1 (stereo not shown) [Cmpd 139] | −9% | –
9 | Cc1ccc(-c2ccc(C(=O)N3CCc4c(n(CCN(C)C)c5ccccc45)C3c3ccc4c(c3)OCO4)o2)c([N+](=O)[O-])c1 (stereo not shown) [Cmpd 42] | 89% | –
10 | COc1ccc(C2c3[nH]c4ccccc4c3CCN2C(=O)c2cc(C(C)(C)C)nn2Cc2ccccc2)cc1 (stereo not shown) [Cmpd 141] | 11% | –
11 | O=C(c1cnn(-c2ccc(Cl)cc2)c1C(F)(F)F)N1CCc2c([nH]c3ccccc23)C1c1ccc2c(c1)OCO2 (stereo not shown) [Cmpd 124] | 53% | –
12 | Cc1cc(C)cc(C2c3[nH]c4ccccc4c3CCN2C(=O)c2cnn(-c3ccccc3)c2C(F)(F)F)c1 (stereo not shown) [Cmpd 126] | 12% | –
13 | O=C(c1ccc(-c2cccc(C(F)(F)F)c2)o1)N1CCc2c(n(CCN3CCOCC3)c3ccccc23)C1c1ccc2c(c1)OCO2 (stereo not shown) [Cmpd 28] | 94% | –
14 | COC(=O)c1ccc(C2c3[nH]c4ccccc4c3CCN2C(=O)c2c(-c3ccccc3)noc2C)cc1 (racemic) [Cmpd 116] | 32% | –
15 | CN(C)CCn1c2c(c3ccccc31)CCN(C(=O)c1ccc(-c3ccc([N+](=O)[O-])cc3)o1)C2c1ccc2c(c1)OCO2 (stereo not shown) [Cmpd 37] | 95% | –
16 | O=C(c1ccc(-c2cccc(C(F)(F)F)c2)o1)N1CCc2c([nH]c3ccccc23)C1c1ccccc1 (stereo not shown) [Cmpd 88] | 49% | –
17 | CN(C)CCn1c2c(c3ccccc31)CCN(C(=O)c1ccc(-c3cc(C(F)(F)F)ccc3Cl)o1)C2c1ccc2c(c1)OCO2 (stereo not shown) [Cmpd 43] | 22% | –
18 | O=C(O)CCn1c2c(c3ccccc31)CCN(C(=O)c1ccc(-c3cccc(C(F)(F)F)c3)o1)C2c1ccc2c(c1)OCO2 (stereo not shown) [Cmpd 29] | 79% | –
19 | O=C(c1cnn(-c2ccc([N+](=O)[O-])cc2)c1C(F)(F)F)N1CCc2c([nH]c3ccccc23)C1c1ccc2c(c1)OCO2 (stereo not shown) [Cmpd 125] | 54% | –
20 | N#Cc1ccc(C2c3[nH]c4ccccc4c3CCN2C(=O)c2ccc(-c3cccc(C(F)(F)F)c3)o2)cc1 (stereo not shown) [Cmpd 81] | 18% | –
21 | CC(C)(C)c1cc(C(=O)N2CCc3c([nH]c4ccccc34)C2c2ccc(Cl)c(C(F)(F)F)c2)n(Cc2ccccc2)n1 (stereo not shown) [Cmpd 138] | 13% | –

Row | Compound | % Inh @ 10 μM (rabbit) | % INH @ 10 μM (rabbit)
22 | Cc1onc(-c2ccccc2)c1C(=O)N1CCc2c([nH]c3ccccc23)C1c1ccc(C#N)cc1 (racemic) [Cmpd 115] | 30% | –
23 | Cc1onc(-c2ccccc2)c1C(=O)N1CCc2c([nH]c3ccccc23)C1c1ccc([N+](=O)[O-])cc1 (racemic) [Cmpd 118] | 28% | –
24 | O=C(c1ccc([N+](=O)[O-])o1)N1CCc2c([nH]c3ccccc23)C1c1ccc2c(c1)OCO2 (stereo not shown) [Cmpd 64] | 83% | –
25 | Cc1onc(-c2ccccc2)c1C(=O)N1CCc2c([nH]c3ccccc23)C1c1ccc(Cl)c(Cl)c1 (racemic) [Cmpd 109] | 31% | –
26 | Cc1ccc(C2c3[nH]c4ccccc4c3CCN2C(=O)c2cc(C(C)(C)C)nn2Cc2ccccc2)cc1C (stereo not shown) [Cmpd 135] | 8% | –
27 | O=C(c1ccc(-c2cccc(C(F)(F)F)c2)o1)N1CCc2c([nH]c3ccccc23)C1c1ccc([N+](=O)[O-])cc1 (stereo not shown) [Cmpd 84] | 20% | –
28 | c1ccc2c3c([nH]c2c1)C(c1ccc2c(c1)CCO2)N(c1ncc(-c2ccc(OCCN4CCCC4)cc2)cn1)CC3 (stereo not shown) [Cmpd 178] | – | 37%
29 | Nc1cccc(-c2ccc(C(=O)N3CCc4c([nH]c5ccccc45)C3c3ccc4c(c3)OCO4)o2)c1 (stereo not shown) [Cmpd 59] | 92% | –
30 | CN(C)CCn1c2c(c3ccccc31)CCN(C(=O)c1cc3ccccc3s1)C2c1ccc2c(c1)OCO2 (stereo not shown) [Cmpd 17] | 88% | –
31 | COC(=O)Cn1c2c(c3ccccc31)CCN(C(=O)c1ccc(-c3cccc(C(F)(F)F)c3)o1)C2c1ccc2c(c1)OCO2 (stereo not shown) [Cmpd 25] | 20% | –
32 | COC(=O)Cn1c2c(c3ccccc31)CCN(C(=O)c1ccc(-c3cccc([N+](=O)[O-])c3)o1)C2c1ccc2c(c1)OCO2 (stereo not shown) [Cmpd 24] | 40% | –
33 | CN(C)CCn1c2c(c3ccccc31)CCN(C(=O)c1ccc(-c3ccc(Cl)cc3)o1)C2c1ccc2c(c1)OCO2 (stereo not shown) [Cmpd 39] | 93% | –
34 | CC(=O)Nc1cccc(-c2ccc(C(=O)N3CCc4c([nH]c5ccccc45)C3c3ccc4c(c3)OCO4)o2)c1 (stereo not shown) [Cmpd 55] | 70% | –
35 | CCCc1c(C(=O)N2CCc3c([nH]c4ccccc34)C2c2ccc3c(c2)OCO3)cnn1-c1ccccc1 (racemic) [Cmpd 122] | 65% | –
36 | N#Cc1ccc(C2c3[nH]c4ccccc4c3CCN2C(=O)c2ccc(-c3cccc([N+](=O)[O-])c3)o2)cc1 (stereo not shown) [Cmpd 80] | 27% | –
37 | Cc1ccc(C2c3[nH]c4ccccc4c3CCN2C(=O)c2c(-c3ccccc3)noc2C)cc1C (racemic) [Cmpd 111] | 35% | –
38 | O=C(c1ccc(-c2cc(C(F)(F)F)ccc2Cl)o1)N1CCc2c([nH]c3ccccc23)C1c1ccc2c(c1)OCO2 (stereo not shown) [Cmpd 57] | 76% | –
39 | O=C(c1cnn(-c2ccccc2)c1C(F)(F)F)N1CCc2c([nH]c3ccccc23)C1c1ccc(Cl)c(C(F)(F)F)c1 (stereo not shown) [Cmpd 127] | 13% | –
40 | c1ccc2sc(N3CCc4c([nH]c5ccccc45)C3c3ccc4c(c3)OCO4)nc2c1 (stereo not shown) [Cmpd 3] | 84% | –
41 | Cc1cc(C)cc(C2c3[nH]c4ccccc4c3CCN2C(=O)c2cc(C(C)(C)C)nn2Cc2ccccc2)c1 (stereo not shown) [Cmpd 137] | −3% | –

same assay, conditions: 10 μM test compound; rabbit PDEV; 10 µM

Row | Compound | % Inh @ 10 μM (rabbit)
42 | O=C(c1ccc(-c2ccc(Cl)cc2[N+](=O)[O-])o1)N1CCc2c([nH]c3ccccc23)C1c1ccc2c(c1)OCO2 (stereo not shown) [Cmpd 47] | 83%

same assay, conditions: 10 μM test compound; rabbit PDEV; read-out: % INH @ 10 μM (rabbit)

Row | Compound | inhibition at 10 µM
43 | CN(C)CCn1c2c(c3ccccc31)CCN(c1nc3ccccc3o1)C2c1ccc2c(c1)OCO2 (stereo not shown) [Cmpd 155] | 57%
